Assay in all cases: NCI anticancer screen, dose series, 48 h
The subject of assay [1] is DU-145 prostate.
For assay [2], the system named is UO-31 renal.
For assay [3], the system named is UACC-62 melanoma.
Assay [4] has as its system NCI-H522 lung.
For assay [5], the system named is SW-620 colon.
For assay [6], the system named is T-47D breast.
In assay [7] the test system is SF-268 CNS.
The subject of assay [8] is A549 NSCLC.
The test system of assay [9] is SNB-75 CNS.
Assay [10] relates to HCT-116 colon.

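A five-concentration, 48-hour dose response in 96-well plates underlies each endpoint, interpolated linearly between surrounding concentrations. Here, GI50 denotes the concentration required for 50% inhibition of growth. TGI: total growth inhibition.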 Some results are limits rather than exact numbers.

Consider `O=C(/C=C/C12c3ccccc3C(c3ccccc31)C1C(=O)NC(=O)C12)c1ccccn1` (stereo unspecified), for which the GI50 in assay [1] is 1.02 µM; in assay [2] it was 1.32 µM; in assay [3], 1.62 µM; in assay [4], 1.52 µM; in assay [5] it was 1.69 µM; in assay [6], 1.73 µM. For the same compound, the GI50 was 1.61 µM in assay [7], 2.34 µM in assay [8], 1.67 µM in assay [9] and 1.42 µM in assay [10]. Also, the TGI in assay [1] came out at 2.21 µM; in [2], 2.74 µM; in assay [3], 3.1 µM; in assay [4] it was 3.37 µM; in assay [5], 5.03 µM; in assay [6] it was 5.26 µM. In addition, the TGI in [7] was found to be 4.35 µM; in assay [8], 6.86 µM; in assay [9], 4.34 µM; in [10], 3.14 µM.

With `Cc1ccc(O)cc1Nc1ccnc2ccc(S(C)(=O)=O)cc12`, the GI50 is 7.23 µM in [1]; 0.496 µM in assay [2]; 0.843 µM in assay [3]; 5.08 µM in assay [4]; 15.2 µM in assay [5]; 1.59 µM in [6]. Further, the GI50 is 2.67 µM in assay [7], 2.76 µM in assay [8], 0.106 µM in assay [9] and 3.53 µM in [10]. Moreover, the TGI in [1] is above 20.4 µM; in [2] it was 4.81 µM; in assay [3], 10.4 µM; in assay [4], above 22.1 µM; in assay [5] it was above 25 µM; in [6], 24.3 µM. Besides, the TGI in [7] was above 25 µM; in [8], above 25 µM; in [9], 1.28 µM; in assay [10], above 25 µM.

Regarding `O=C1C=C[C@H](O)[C@@]2(CO)O[C@@H]12`, the GI50 in assay [1] is 14.3 µM; in assay [2], 10.4 µM; in assay [3], 4.55 µM; in assay [4], 1.81 µM; in assay [5], 2.23 µM; in assay [6] it was 8.16 µM. Also, the GI50 in assay [7] was 15.3 µM; in assay [8], 23.7 µM; in [9], 11.3 µM; in assay [10], 1.79 µM. In addition, the TGI amounted to 27.4 µM in [1]; 24 µM in assay [2]; 14.3 µM in assay [3]; 3.79 µM in assay [4]; 5.33 µM in assay [5]; 26.3 µM in assay [6]. Moreover, the TGI in [7] is 29 µM; in assay [8], above 60.1 µM; in assay [9] it was 23.4 µM; in assay [10] it was 3.33 µM.

Take `CCN(C)c1nc(N(C)CC)c2nc(N(C)CC)nc(N(C)CC)c2n1`: the TGI in [1], in assay [2], in assay [3], in [4], in assay [5] and in assay [6] was above 100 µM each time. The TGI in [7], in [8], in assay [9] and in [10] was above 100 µM in each case.

In the case of `COc1ccc(OC)c(/C=C/c2nc(=S)n(-c3ccc(Cl)cc3)[nH]2)c1`, the GI50 in assay [1] was 19.1 µM; in assay [3] it was 3.11 µM; in assay [4] it was 4.07 µM; in assay [5], 5.09 µM; in [6], 4.51 µM; in [7], 17.5 µM. In addition, the values for the GI50 in assay [8], in [9] and in assay [10] were 9.07 µM, 2.85 µM and 4.05 µM, respectively. For the same compound, the TGI in assay [1], in assay [3], in assay [4], in assay [5], in assay [6] and in assay [7] was above 100 µM in each case. Also, the TGI in assay [8], in assay [9] and in [10] was above 100 µM each time.

Consider `CNCc1cccc2c1OCCOCCOCCN(C)S(=O)(=O)c1ccc(cc1)-c1cnc(N)c(n1)C(=O)N2`, for which the GI50 in assay [1] was 1.27 µM; in assay [2], 1.21 µM; in assay [3], 1.3 µM; in [4] it was 1.76 µM; in assay [5], 1.66 µM; in assay [6], 2.25 µM. Besides, the GI50 in assay [7] is 1.75 µM; in assay [8], 1.57 µM; in assay [9] it was 0.218 µM; in assay [10] it was 1.19 µM. In addition, the TGI amounted to 15.2 µM in assay [1]; 2.91 µM in [2]; 2.87 µM in [3]; 4.94 µM in assay [4]; 4.25 µM in [5]; 6.15 µM in assay [6]. Besides, the TGI was determined as 5.81 µM in assay [7], 13.4 µM in assay [8], 17.6 µM in assay [9] and 3.12 µM in assay [10].

Turning to `CN(C)CCCC1(c2ccc(F)cc2)OCc2cc(-c3cccc4[nH]ccc34)ccc21` (stereo unspecified), the GI50 is 1.77 µM in assay [1]; 1.35 µM in assay [2]; 1.76 µM in assay [3]; 1.59 µM in assay [4]; 1.77 µM in assay [5]; 1.75 µM in assay [6]. Further, the GI50 in [7] was 1.58 µM; in assay [8] it was 1.6 µM; in [9] it was 1.27 µM; in assay [10] it was 1.37 µM. The TGI in assay [1] came out at 3.23 µM; in [2] it was 2.63 µM; in [3] it was 3.23 µM; in assay [4] it was 3.22 µM; in assay [5], 3.54 µM; in assay [6], 3.78 µM. Further, the TGI in assay [7] is 3.03 µM; in [8] it was 3.07 µM; in assay [9], 3.37 µM; in [10], 2.82 µM.

For `CC1(C)OC[C@@H]([C@@]2(CO[Si](c3ccccc3)(c3ccccc3)C(C)(C)C)CC=CC(=O)O2)O1`, the GI50 in assay [1] is 12.7 µM; in assay [2] it was 12.2 µM; in assay [3] it was 5.79 µM; in assay [4], 5.02 µM; in [5], 4.55 µM; in assay [6] it was 8.03 µM. For the same compound, the GI50 in assay [7] is 10.5 µM; in assay [8], 5.27 µM; in [10], 4.86 µM. In addition, the TGI is above 100 µM in [1]; above 100 µM in assay [2]; 84.5 µM in assay [3]; above 100 µM in assay [4]; 46.7 µM in [5]; above 100 µM in assay [6]. Also, the TGI was 45.8 µM in [7], above 100 µM in assay [8] and above 100 µM in assay [10].

The values are drawn from PubChem BioAssay (NCI).
